Test results taken from US4442044A, “Process for preparing monoesters and diesters of N-alkyl substituted amino methyl phosphonic acid” (priority 1983, dated 1984).

Columns and labels:
Experiment in all cases: post-emergent herbicidal activity, greenhouse
Type in all cases: in vivo
Cocklebur = system: Cocklebur
Procedure, shortened: (§1)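 Post-emergence foliar spray at tabulated application rates, using aliquots of a 1.0% stock in acetone, THF or water plus ~0.4% emulsifier, applied to 2–3-week-old greenhouse plants. Plant injury was rated relative to controls roughly two and four weeks after treatment.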

Morningglory = system: Morningglory
Procedure, shortened: as §1

Quackgrass = details: Table I, 4 WAT
Procedure, shortened: as §1

Rice = details: Table II
Procedure, shortened: as §1

Panicum Spp = details: Table II
Procedure, shortened: as §1

Crabgrass = details: Table II
Procedure, shortened: as §1

Lambsquarters = system: Lambsquarters
Procedure, shortened: as §1

Hemp Sesbania = details: Table II
Procedure, shortened: as §1

Johnsongrass = details: Table I, 4 WAT
Procedure, shortened: as §1

Sugar Beet = details: Table II
Procedure, shortened: as §1

Downy Brome = system: Downy Brome
Procedure, shortened: as §1

Smartweed = system: Smartweed
Procedure, shortened: as §1

Sorghum = details: Table II
Procedure, shortened: as §1

Yellow Nutsedge = details: Table I, 4 WAT
Procedure, shortened: as §1

Canada Thistle = details: Table I, 4 WAT
Procedure, shortened: as §1

Velvetleaf = system: Velvetleaf
Procedure, shortened: as §1

Barnyardgrass = system: Barnyardgrass
Procedure, shortened: as §1

Wheat = details: Table II
Procedure, shortened: as §1

Wild Buckwheat = details: Table II
Procedure, shortened: as §1

Soybean = details: Table II
Procedure, shortened: as §1

Measured: post-emergent herbicidal activity index

CCOC(=O)CNCP(=O)(O)OCC(Cl)(Cl)Cl [Example 27, glycine, N-[[hydroxy(2,2,2-trichloroethoxy)-phosphinyl]methyl]-, ethyl ester]
3 (75-99% control): Cocklebur; Table II, 4 WAT, 5.6 kg/h | Rice; 4 WAT, 0.28 kg/h | Rice; 4 WAT, 1.12 kg/h | Rice; 4 WAT, 5.6 kg/h | Panicum Spp; 4 WAT, 0.28 kg/h | Crabgrass; 4 WAT, 1.12 kg/h | Lambsquarters; Table I, 4 WAT, 5.6 kg/h | Lambsquarters; Table I, 4 WAT, 11.2 kg/h | Lambsquarters; Table II, 4 WAT, 5.6 kg/h | Hemp Sesbania; 4 WAT, 5.6 kg/h | Sugar Beet; 4 WAT, 5.6 kg/h | Downy Brome; Table II, 4 WAT, 0.28 kg/h | Downy Brome; Table II, 4 WAT, 1.12 kg/h | Downy Brome; Table II, 4 WAT, 5.6 kg/h | Smartweed; Table II, 4 WAT, 0.28 kg/h | Smartweed; Table II, 4 WAT, 5.6 kg/h | Sorghum; 4 WAT, 5.6 kg/h | Barnyardgrass; Table I, 4 WAT, 5.6 kg/h | Barnyardgrass; Table I, 4 WAT, 11.2 kg/h | Barnyardgrass; Table II, 4 WAT, 0.28 kg/h | Barnyardgrass; Table II, 4 WAT, 1.12 kg/h | Barnyardgrass; Table II, 4 WAT, 5.6 kg/h | Wheat; 4 WAT, 0.28 kg/h | Soybean; 4 WAT, 5.6 kg/h
0 (0-24% control): Cocklebur; Table II, 2 WAT, 0.01 kg/h | Cocklebur; Table II, 2 WAT, 0.06 kg/h | Morningglory; Table II, 2 WAT, 0.01 kg/h | Morningglory; Table II, 2 WAT, 0.06 kg/h | Rice; 2 WAT, 0.01 kg/h | Rice; 2 WAT, 0.06 kg/h | Panicum Spp; 2 WAT, 0.01 kg/h | Panicum Spp; 2 WAT, 0.06 kg/h | Lambsquarters; Table II, 2 WAT, 0.01 kg/h | Lambsquarters; Table II, 2 WAT, 0.06 kg/h | Hemp Sesbania; 2 WAT, 0.01 kg/h | Hemp Sesbania; 2 WAT, 0.06 kg/h | Johnsongrass; 11.2 kg/h | Sugar Beet; 2 WAT, 0.01 kg/h | Sugar Beet; 2 WAT, 0.06 kg/h | Downy Brome; Table I, 4 WAT, 5.6 kg/h | Downy Brome; Table I, 4 WAT, 11.2 kg/h | Downy Brome; Table II, 2 WAT, 0.01 kg/h | Downy Brome; Table II, 2 WAT, 0.06 kg/h | Smartweed; Table II, 2 WAT, 0.01 kg/h | Smartweed; Table II, 2 WAT, 0.06 kg/h | Sorghum; 2 WAT, 0.01 kg/h | Sorghum; 2 WAT, 0.06 kg/h | Yellow Nutsedge; 5.6 kg/h | Velvetleaf; Table II, 2 WAT, 0.01 kg/h | Velvetleaf; Table II, 2 WAT, 0.06 kg/h | Barnyardgrass; Table II, 2 WAT, 0.01 kg/h | Barnyardgrass; Table II, 2 WAT, 0.06 kg/h | Wheat; 2 WAT, 0.01 kg/h | Wheat; 2 WAT, 0.06 kg/h | Wild Buckwheat; 2 WAT, 0.01 kg/h | Wild Buckwheat; 2 WAT, 0.06 kg/h | Soybean; 2 WAT, 0.01 kg/h | Soybean; 2 WAT, 0.06 kg/h
2 (50-74% control): Cocklebur; Table I, 4 WAT, 5.6 kg/h | Cocklebur; Table I, 4 WAT, 11.2 kg/h | Cocklebur; Table II, 4 WAT, 0.28 kg/h | Cocklebur; Table II, 4 WAT, 1.12 kg/h | Morningglory; Table I, 4 WAT, 5.6 kg/h | Morningglory; Table I, 4 WAT, 11.2 kg/h | Morningglory; Table II, 4 WAT, 0.28 kg/h | Morningglory; Table II, 4 WAT, 1.12 kg/h | Morningglory; Table II, 4 WAT, 5.6 kg/h | Lambsquarters; Table II, 4 WAT, 1.12 kg/h | Hemp Sesbania; 4 WAT, 1.12 kg/h | Johnsongrass; 5.6 kg/h | Sugar Beet; 4 WAT, 0.28 kg/h | Sugar Beet; 4 WAT, 1.12 kg/h | Smartweed; Table I, 4 WAT, 5.6 kg/h | Smartweed; Table I, 4 WAT, 11.2 kg/h | Smartweed; Table II, 4 WAT, 1.12 kg/h | Sorghum; 4 WAT, 0.28 kg/h | Sorghum; 4 WAT, 1.12 kg/h | Yellow Nutsedge; 11.2 kg/h | Canada Thistle; 11.2 kg/h | Velvetleaf; Table I, 4 WAT, 11.2 kg/h | Wheat; 4 WAT, 1.12 kg/h | Wild Buckwheat; 4 WAT, 0.28 kg/h | Wild Buckwheat; 4 WAT, 1.12 kg/h | Wild Buckwheat; 4 WAT, 5.6 kg/h | Soybean; 4 WAT, 0.28 kg/h | Soybean; 4 WAT, 1.12 kg/h
4 (100% control): Panicum Spp; 4 WAT, 1.12 kg/h | Panicum Spp; 4 WAT, 5.6 kg/h | Crabgrass; 4 WAT, 5.6 kg/h | Wheat; 4 WAT, 5.6 kg/h
1 (25-49% control): Quackgrass; 5.6 kg/h | Quackgrass; 11.2 kg/h | Lambsquarters; Table II, 4 WAT, 0.28 kg/h | Hemp Sesbania; 4 WAT, 0.28 kg/h | Canada Thistle; 5.6 kg/h | Velvetleaf; Table I, 4 WAT, 5.6 kg/h | Velvetleaf; Table II, 4 WAT, 0.28 kg/h | Velvetleaf; Table II, 4 WAT, 1.12 kg/h | Velvetleaf; Table II, 4 WAT, 5.6 kg/h

CCOC(=O)CNCP(=O)(O)OC(C)C(=O)OC (stereo not drawn) [Example 28, propanoic acid, 2-[[[[(2-ethoxy-2-oxoethyl)amino]methyl]hydroxyphosphinyl]oxy]-, methyl ester]
3 (75-99% control): Morningglory; Table I, 4 WAT, 11.2 kg/h | Crabgrass; 4 WAT, 5.6 kg/h | Lambsquarters; Table I, 4 WAT, 11.2 kg/h | Hemp Sesbania; 4 WAT, 5.6 kg/h | Johnsongrass; 11.2 kg/h | Smartweed; Table I, 4 WAT, 11.2 kg/h | Yellow Nutsedge; 11.2 kg/h | Barnyardgrass; Table II, 4 WAT, 5.6 kg/h
2 (50-74% control): Cocklebur; Table I, 4 WAT, 11.2 kg/h | Cocklebur; Table II, 4 WAT, 5.6 kg/h | Morningglory; Table II, 4 WAT, 5.6 kg/h | Quackgrass; 11.2 kg/h | Rice; 4 WAT, 5.6 kg/h | Panicum Spp; 4 WAT, 5.6 kg/h | Crabgrass; 2 WAT, 1.12 kg/h | Johnsongrass; 5.6 kg/h | Sorghum; 4 WAT, 5.6 kg/h | Velvetleaf; Table I, 4 WAT, 11.2 kg/h | Barnyardgrass; Table I, 4 WAT, 5.6 kg/h | Barnyardgrass; Table I, 4 WAT, 11.2 kg/h
1 (25-49% control): Cocklebur; Table I, 4 WAT, 5.6 kg/h | Morningglory; Table I, 4 WAT, 5.6 kg/h | Morningglory; Table II, 2 WAT, 1.12 kg/h | Lambsquarters; Table II, 4 WAT, 5.6 kg/h | Downy Brome; Table I, 4 WAT, 5.6 kg/h | Downy Brome; Table I, 4 WAT, 11.2 kg/h | Smartweed; Table II, 4 WAT, 5.6 kg/h | Yellow Nutsedge; 5.6 kg/h | Canada Thistle; 5.6 kg/h | Canada Thistle; 11.2 kg/h | Barnyardgrass; Table II, 2 WAT, 1.12 kg/h | Wheat; 4 WAT, 5.6 kg/h | Soybean; 2 WAT, 1.12 kg/h | Soybean; 4 WAT, 5.6 kg/h
0 (0-24% control): Cocklebur; Table II, 2 WAT, 1.12 kg/h | Quackgrass; 5.6 kg/h | Rice; 2 WAT, 1.12 kg/h | Panicum Spp; 2 WAT, 1.12 kg/h | Lambsquarters; Table I, 4 WAT, 5.6 kg/h | Lambsquarters; Table II, 2 WAT, 1.12 kg/h | Hemp Sesbania; 2 WAT, 1.12 kg/h | Sugar Beet; 2 WAT, 1.12 kg/h | Sugar Beet; 4 WAT, 5.6 kg/h | Downy Brome; Table II, 2 WAT, 1.12 kg/h | Downy Brome; Table II, 4 WAT, 5.6 kg/h | Smartweed; Table I, 4 WAT, 5.6 kg/h | Smartweed; Table II, 2 WAT, 1.12 kg/h | Sorghum; 2 WAT, 1.12 kg/h | Velvetleaf; Table I, 4 WAT, 5.6 kg/h | Velvetleaf; Table II, 2 WAT, 1.12 kg/h | Velvetleaf; Table II, 4 WAT, 5.6 kg/h | Wheat; 2 WAT, 1.12 kg/h | Wild Buckwheat; 2 WAT, 1.12 kg/h | Wild Buckwheat; 4 WAT, 5.6 kg/h
